Reference: patent publication US11266655B2, “Methods and compositions for treating urea cycle disorders” (Camp4 Therapeutics Corporation, priority 2019, dated 2022)
Counter-ions that a name gives are not always drawn. Like-named read-outs stand apart in the source and are kept apart here.

How the values were obtained:
ASS1 = assay: RNA-seq of compound-treated primary human hepatocytes, ASS1 expression; type: cell-based; settings: for Fold change (Log 2) vs untreated, ASS1 expression: RNA-seq (Table 4)
NAGS = type: cell-based, human
urea cycle genes = assay: RNA-seq of primary human hepatocytes, compounds that modulate multiple urea cycle-related genes; type: cell-based; settings: primary human hepatocytes, RNA-seq; for Up-regulated Genes: urea cycle-related genes significantly increased (Table 10)
SLC25A15 = assay: RNA-seq of compound-treated primary human hepatocytes, SLC25A15 expression; type: cell-based; settings: for Increase in SLC25A15 gene expression (qualitative): Example 11, relative mRNA vs DMSO; for Fold change (Log 2) vs untreated, SLC25A15 expression: RNA-seq (Table 8)
ARG1 = assay: RNA-seq of compound-treated primary human hepatocytes, ARG1 expression; type: cell-based; settings: for Relative ARGI level vs Untreated (±Standard Deviation) / Fold change (Log 2) vs untreated, ARG1 expression: primary human hepatocytes; for Relative ARGI level vs Untreated (±Standard Deviation): triplicate (Table 17, FIG. 9); for Fold change (Log 2) vs untreated, ARG1 expression: RNA-seq (Table 7)
[1] = primary human hepatocytes, RNA-seq (Table 6)
[2] = 0.3 μM, primary human hepatocytes, triplicate (Table 21, FIG. 13)
[3] = 3 μM, primary human hepatocytes, triplicate (Table 15, FIG. 7)
[4] = 10 μM, primary human hepatocytes, triplicate (Table 15, FIG. 7)
[5] = 10 μM, primary human hepatocytes, triplicate (Table 24, FIG. 16A-B)
[6] = 3 μM, primary human hepatocytes, triplicate (Table 21, FIG. 13)

N#CC(c1ccnc(OCc2ccc(CN3CCOCC3)cc2)n1)c1nc2ccccc2s1 (centres unmarked) [Bentamapimod]
Relative ASS1 level vs Untreated (±Standard Deviation) (ASS1; 10 µM): 1.90 ± 0.22

CN(C)[C@@H]1C(O)=C(C(N)=O)C(=O)[C@@]2(O)C(O)=C3C(=O)c4c(O)c(NC(=O)CN5CCCC5)cc(F)c4C[C@H]3C[C@@H]12 [TP-434 (Eravacycline), Eravacycline]
Fold change (Log 2) vs untreated, ASS1 expression (ASS1; primary human hepatocytes): 0.76 Log 2 | Fold change (Log 2) vs untreated, NAGS expression (NAGS; [1]): 1.5 Log 2

CCc1ccc(CCOc2ccc(CC3SC(=O)NC3=O)cc2)nc1 (centres unmarked) [Pioglitazone HCl]
Relative NAGS level vs Untreated (±Standard Deviation) (NAGS; [2]): 1.33 ± 0.02

O=C1CCC(N2C(=O)c3ccccc3C2=O)C(=O)N1 (centres unmarked) [Thalidomide]
number of urea cycle genes whose expression was significantly up-regulated (urea cycle genes): five | Up-regulated Genes (urea cycle genes): NAGS, CPS1, ALS, OTC, ARG1 | Fold change (Log 2) vs untreated, NAGS expression (NAGS; [1]): 1.1 Log 2

CCn1c(=O)c(-c2ccc(-c3cncs3)cc2Cl)cc2cnc(Nc3ccc(N4CCN(C)CC4)cc3)nc21 [FRAX597]
number of urea cycle genes whose expression was significantly up-regulated (urea cycle genes): five | Up-regulated Genes (urea cycle genes): CPS1, ASS1, OTC, ARG1, SLC25A15

[H]/N=C(/N)N/C(=N/[H])NCCc1ccccc1 [Phenformin]
Fold change (Log 2) vs untreated, NAGS expression (NAGS): 1.38 Log 2

CC(C)c1cc(CNc2nc(Nc3cc(C4CC4)[nH]n3)cc(N3CCN(C)CC3)n2)on1 [XL228]
Increase in SLC25A15 gene expression (qualitative) (SLC25A15): greatest increase | Relative ARGI level vs Untreated (±Standard Deviation) (ARG1; 0.3 μM): 1.47 ± 0.11 | Relative ARGI level vs Untreated (±Standard Deviation) (ARG1; 1 μM): 2.05 ± 0.11 | Relative ARGI level vs Untreated (±Standard Deviation) (ARG1; 3 μM): 2.15 ± 0.04 | increase in ARG1 gene expression (Tables 17, 18, FIG. 9, 10) (ARG1; Example 11, relative mRNA vs DMSO): greatest increase | Relative ASS1 level vs Untreated (±Standard Deviation) (ASS1; 1 μM, primary human hepatocytes, triplicate (Table 15, FIG. 7)): 1.83 ± 0.02 | Relative ASS1 level vs Untreated (±Standard Deviation) (ASS1; [3]): 1.45 ± 0.10 | Relative ASS1 level vs Untreated (±Standard Deviation) (ASS1; [4]): 2.05 ± 0.00

CC(=O)CC(c1ccccc1)c1c(O)c2ccccc2oc1=O (centres unmarked) [wafarin]
Relative ARGI level vs Untreated (±Standard Deviation) (ARG1; 10 μM): 1.33 ± 0.62

O=C(N[C@H]1CN2CCC1CC2)c1cc2cccc(Cl)c2s1 [EVP-6124 (hydrochloride) (encenicline), encenicline]
Fold change (Log 2) vs untreated, NAGS expression (NAGS; [1]): 0.75 Log 2

CCN(CC)CCNC(=O)c1c(C)[nH]c(/C=C2\C(=O)Nc3ccc(F)cc32)c1C [Sunitinib]
Relative SLC25A15 level vs Untreated (±Standard Deviation) (SLC25A15; 0.3 μM, primary human hepatocytes, triplicate (Table 24, FIG. 16A-B)): 1.32 ± 0.08 | Relative SLC25A15 level vs Untreated (±Standard Deviation) (SLC25A15; 3 μM, primary human hepatocytes, triplicate (Table 24, FIG. 16A-B)): 2.36 ± 0.20 | Relative SLC25A15 level vs Untreated (±Standard Deviation) (SLC25A15; [5]): 2.43 ± 0.29 | Relative ARGI level vs Untreated (±Standard Deviation) (ARG1; 10 μM): 1.36 ± 0.01 | Relative ASS1 level vs Untreated (±Standard Deviation) (ASS1; [3]): 2.25 ± 0.45 | Relative ASS1 level vs Untreated (±Standard Deviation) (ASS1; [4]): 2.70 ± 0.37 | Relative NAGS level vs Untreated (±Standard Deviation) (NAGS; [2]): 1.40 ± 0.03 | Relative NAGS level vs Untreated (±Standard Deviation) (NAGS; 1 μM, primary human hepatocytes, triplicate (Table 21, FIG. 13)): 1.63 ± 0.42

Cc1ccc(F)c(NC(=O)Nc2ccc(-c3cccc4[nH]nc(N)c34)cc2)c1 [Linifanib]
Relative NAGS level vs Untreated (±Standard Deviation) (NAGS; [6]): 1.32 ± 0.04

N#CC(c1ccnc(OCc2ccc(CN3CCOCC3)cc2)n1)c1nc2ccccc2s1 (centres unmarked) [AS602801]
Relative SLC25A15 level vs Untreated (±Standard Deviation) (SLC25A15; 10 µM): 2.22 ± 0.24

CCCC(=O)O[C@@H]1[C@@H](C)[C@@]2(O)[C@@H](C=C(CO)C[C@]3(O)C(=O)C(C)=C[C@@H]23)[C@@H]2C(C)(C)[C@]12OC(=O)CCC [Phorbol 12, 13-dibutyrate]
Fold change (Log 2) vs untreated, NAGS expression (NAGS; [1]): 0.62 Log 2

N#CCNC(=O)c1ccc(-c2ccnc(Nc3ccc(N4CCOCC4)cc3)n2)cc1 [Momelotinib]
number of urea cycle genes whose expression was significantly up-regulated (urea cycle genes): three | Up-regulated Genes (urea cycle genes): CPS1, OTC, ARG1

TNF-a
Fold change (Log 2) vs untreated, ARG1 expression (ARG1): 1.87 Log 2

COc1cc(Nc2ncc(F)c(Nc3ccc4c(n3)N(COP(=O)(O)O)C(=O)C(C)(C)O4)n2)cc(OC)c1OC [R788 (fostamatinib disodium hexahydrate), fostamatinib disodium hexahydrate]
number of urea cycle genes whose expression was significantly up-regulated (urea cycle genes): three | Up-regulated Genes (urea cycle genes): CPS1, ARG1, SLC25A15

NC(=O)c1ccc(I)c([N+](=O)[O-])c1 [Iniparib (BSI-]
Relative NAGS level vs Untreated (±Standard Deviation) (NAGS): 1.35 ± 0.27

O=C(NCCCn1ccnc1)c1cc(-c2ccco2)on1 [SKL2001]
Fold change (Log 2) vs untreated, NAGS expression (NAGS): 0.95 Log 2

C=C1/C(=C\C=C2/CCC[C@]3(C)[C@@H]([C@H](C)CCCC(C)(C)O)CC[C@@H]23)C[C@@H](O)C[C@@H]1O [Calcitriol]
Fold change (Log 2) vs untreated, NAGS expression (NAGS; [1]): 1.2 Log 2

O=C1NC(=O)/C(=C/c2cccc(C(F)(F)F)c2)S1 [SMI-4a]
Fold change (Log 2) vs untreated, ASS1 expression (ASS1; primary human hepatocytes): 0.69 Log 2 | Fold change (Log 2) vs untreated, NAGS expression (NAGS): 1.25 Log 2

CS[C@H]1SC[C@H]2C(=O)N(C)[C@@H](C(C)C)C(=O)OC[C@@H](NC(=O)c3cnc4ccccc4n3)C(=O)N[C@@H](C)C(=O)N(C)[C@@H]1C(=O)N(C)[C@@H](C(C)C)C(=O)OC[C@@H](NC(=O)c1cnc3ccccc3n1)C(=O)N[C@@H](C)C(=O)N2C [Echinomycin]
Increase in SLC25A15 gene expression (qualitative) (SLC25A15): greatest increase | number of urea cycle genes whose expression was significantly up-regulated (urea cycle genes): six

CCn1c(=O)c(-c2cc[nH]n2)cc2c(C)nc(N)nc21 [Voxtalisib]
Relative ARGI level vs Untreated (±Standard Deviation) (ARG1; 3 μM): 1.34 ± 0.16 | Relative ARGI level vs Untreated (±Standard Deviation) (ARG1; 10 μM): 1.48 ± 0.18 | Relative ASS1 level vs Untreated (±Standard Deviation) (ASS1; [4]): 1.43 ± 0.13 | Relative NAGS level vs Untreated (±Standard Deviation) (NAGS; [2]): 1.35 ± 0.04 | Relative NAGS level vs Untreated (±Standard Deviation) (NAGS; [6]): 1.33 ± 0.15 | Relative NAGS level vs Untreated (±Standard Deviation) (NAGS; 10 μM, primary human hepatocytes, triplicate (Table 21, FIG. 13)): 1.78 ± 0.04

CN1CCN(CCCN2c3ccccc3Sc3ccc(C(F)(F)F)cc32)CC1 [TFP, Trifluoperazine]
Fold change (Log 2) vs untreated, NAGS expression (NAGS; [1]): 0.58 Log 2

C[C@]12C[C@H](O)[C@H]3[C@@H](CCC4=CC(=O)CC[C@@]43C)[C@@H]1CC[C@@H]2C(=O)CO [Corticosterone]
Fold change (Log 2) vs untreated, SLC25A15 expression (SLC25A15; primary human hepatocytes): 0.96 Log 2

Cc1cc(C)c(/C=C2\C(=O)Nc3ccccc32)[nH]1 [Semaxanib]
Fold change (Log 2) vs untreated, NAGS expression (NAGS; [1]): 2 Log 2

COc1nc(N)nc2c1ncn2[C@@H]1O[C@H](COP(=O)(N[C@@H](C)C(=O)OCC(C)(C)C)Oc2cccc3ccccc23)[C@@H](O)[C@@]1(C)O (some centres unmarked) [bms-986094 (inx-189)]
Fold change (Log 2) vs untreated, SLC25A15 expression (SLC25A15; primary human hepatocytes): 1.18 Log 2

O=C(NOCCO)c1cc(CN2OCCCC2=O)c(F)c(F)c1Nc1ccc(I)cc1F [RO4987655)]
Relative SLC25A15 level vs Untreated (±Standard Deviation) (SLC25A15; [5]): 1.31 ± 0.13

C[C@]12C=CC(=O)C=C1CC[C@@H]1[C@@H]2C(=O)C[C@@]2(C)[C@H]1CC[C@]2(O)C(=O)CO [prednisone]
number of urea cycle genes whose expression was significantly up-regulated (urea cycle genes): three | Up-regulated Genes (urea cycle genes): CPS1, NAGS, ARG1 | Fold change (Log 2) vs untreated, NAGS expression (NAGS; [1]): 1 Log 2

B1: Wnt3 a (protein, UniProt P56704 19-352, looked up)
Protein Wnt-3a: SYPIWWSLAVGPQYSSLGSQPILCASIPGLVPKQLRFCRNYVEIMPSVAEGIKIGIQECQHQFRGRRWNCTTVHDSLAIFGPVLDKATRESAFVHAIASAGVAFAVTRSCAEGTAAICGCSSRHQGSPGKGWKWGGCSEDIEFGGMVSREFADARENRPDARSAMNRHNNEAGRQAIASHMHLKCKCHGLSGSCEVKTCWWSQPDFRAIGDFLKDKYDSASEMVVEKHRESRGWVETLRPRYTYFKVPTERDLVYYEASPNFCEPNPETGSFGTRDRTCNVSSHGIDGCDLLCCGRGHNARAERRREKCRCVFHWCCYVSCQECTRVYDVHTCK
Fold change (Log 2) vs untreated, SLC25A15 expression (SLC25A15; primary human hepatocytes): 0.7 Log 2

B2: GDF 10 (BMP3b) (protein, UniProt P55107 369-478, looked up)
Growth/differentiation factor …: QWDEPRVCSRRYLKVDFADIGWNEWIISPKSFDAYYCAGACEFPMPKIVRPSNHATIQSIVRAVGIIPGIPEPCCVPDKMNSLGVLFLDENRNVVLKVYPNMSVDTCACR
Fold change (Log 2) vs untreated, ARG1 expression (ARG1): 0.97 Log 2
